IC50 data for 21 compounds are collected here from patent US20230331683A1, “INHIBITORS OF SPINSTER HOMOLOG 2 (SPNS2) FOR USE IN THERAPY” (University of Virginia Patent Foundation, priority 2020, published 2023).

The target in the test is mouse SPNS2 (Mus musculus (Mouse), UniProt Q91VM4). Kind of test: S1P Transporter Assay (S1P release from whole cells expressing SPNS2). In kind it is cell-based. To be noted: in vitro inhibition against SPNS2; HeLa cells expressing mouse SPNS2, S1P release into media after 18 hours; compounds as their pharmaceutical salts. Here is the method: Transporter assays are vectorial and therefore require measurement of the transported analyte in different compartments. The S1P transporter SPNS2 only exports S1P, which obviates measuring uptake of S1P into transporter-expressing cells. Thus, transporter activity was determined by quantifying S1P release from whole cells expressing SPNS2. SPNS2 inhibitor potency was assessed using whole cell assays. HeLa cells expressing mouse SPNS2 were used to determine inhibitor potency (IC50). Cells were plated onto 12 well plates and assayed when the cell monolayers became confluent. Cell growth media (RPMI-1640 containing 10% fetal bovine serum) was replaced with 2 mL of serum-free media (RPMI-1640) containing fatty acid free bovine serum albumin (BSA) (0.2 % w/v) and supplemented with 4-deoxypyridoxine (DOP) (1 mM), NaF (2 mM), Na3VO4 (0.2 mM) to inhibit S1P degradation. Test articles (1 × 10-9 - 1 × 10^-4 M) were assayed in duplicate or triplicate. After 18 hours, media was collected, an internal recovery standard (0.005 mL of 5 × 10^-7 M deuterated (d7) S 1P in methanol) was added, the BSA was precipitated with trichloroacetic acid and the bound S1P extracted with methanol. S1P and S1P-d7 were measured by liquid chromatography mass spectrometry. Inhibitor potency at the human SPNS2 ortholog was determined by an analogous assay using U-937 cells, which endogenously express human SPNS2.

As usually defined, the IC50 is the concentration that inhibits the measured activity by half.

Structures are written as SMILES. Where a name gives a salt, the structure may show the parent alone.

mouse SPNS2, sequence (Q91VM4 whole entry): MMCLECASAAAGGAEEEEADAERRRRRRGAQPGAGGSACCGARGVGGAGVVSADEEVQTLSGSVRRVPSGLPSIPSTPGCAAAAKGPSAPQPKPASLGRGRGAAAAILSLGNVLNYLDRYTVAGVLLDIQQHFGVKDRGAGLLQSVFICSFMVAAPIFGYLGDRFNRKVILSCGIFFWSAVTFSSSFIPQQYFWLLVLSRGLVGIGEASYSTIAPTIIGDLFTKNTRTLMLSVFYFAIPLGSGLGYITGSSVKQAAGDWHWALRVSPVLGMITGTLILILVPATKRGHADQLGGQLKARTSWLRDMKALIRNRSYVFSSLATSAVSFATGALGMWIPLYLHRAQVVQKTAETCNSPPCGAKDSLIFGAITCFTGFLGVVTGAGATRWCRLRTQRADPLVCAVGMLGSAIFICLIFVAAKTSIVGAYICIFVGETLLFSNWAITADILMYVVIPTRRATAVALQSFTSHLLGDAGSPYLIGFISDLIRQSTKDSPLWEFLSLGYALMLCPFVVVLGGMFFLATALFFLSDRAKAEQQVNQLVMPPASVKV

As for `CCCCCCCCCCc1ccc(NC(=O)[C@@H]2CCCNC2)cc1` [Compound 2a], the IC50 is over 2000 nM.
To `CCCCCCCCCCc1ccc(NC(=O)[C@@H]2CCNC2)cc1` [Compound 2b] belongs over 2000 nM; to `CCCCCCCCCCc1ccc(NC(=O)CCCN)cc1` [Compound 2c, 4-amino-N-(4-decylphenyl)butanamide Hydrochloride], at most 2000 nM.
To `CCCCCCCCCCc1ccc(NC(=O)CCN)cc1` [Compound 2d, 3-amino-N-(4-decylphenyl)propanamide Hydrochloride] belongs at most 2000 nM; to `CCCCCCCCCCc1ccc(NC(=O)CCCCN)cc1` [Compound 2e, 5-amino-N-(4-decylphenyl)pentanamide Hydrochloride], over 2000 nM.
To `CCCCCCCCCCc1ccc(NC(=O)CCCCCN)cc1` [Compound 2f, 6-amino-N-(4-decylphenyl)hexanamide Hydrochloride] belongs at most 2000 nM.
Turning to `CCCCCCCCCc1ccc(NC(=O)CCCN)cc1` [Compound 2g, 4-amino-N-(4-nonylphenyl)butanamide Hydrochloride], the IC50 was over 2000 nM.
To `CCCCCCCCc1ccc(NC(=O)CCCN)cc1` [Compound 2h, 4-amino-N-(4-octylphenyl)butanamide Hydrochloride] belongs over 2000 nM.
To `CCCCCCCCCCc1ccc(NC(=O)C[C@@H]2CCNC2)cc1` [Compound 2i, (S)-N-decylphenyl)-2-(pyrrolidin-3-yl)acetamide Hydrochloride] belongs at most 2000 nM; to `CCCCCCCCCCc1ccc(NC(=O)C[C@H]2CCNC2)cc1` [Compound 2j, (R)-N-decylphenyl)-2-(pyrrolidin-3-yl)acetamide Hydrochloride], at most 2000 nM; to `CCCCCCCCCCc1ccc(NC(=O)CCCN)c(F)c1` [Compound 2l, amino-N-decyl-2-fluorophenyl)butanamide Hydrochloride], over 2000 nM.
To `CCCCCCCCCOc1ccc(NC(=O)CCCN)cc1C(F)(F)F` [Compound 2m, 4-amino-N-(4-(nonyloxy)-3-(trifluoromethyl)phenyl)butanamide hydrochloride] belongs over 2000 nM.
Consider `CCCCCCCCCCc1ccc(NC(=O)CCCNC)cc1` [Compound 2n, N-decylphenyl)-4-(methylamino)butanamide Hydrochloride], for which the IC50 was over 2000 nM.
To `CCCCCCCCCCc1ccc(NC(=O)C2CCNCC2)cc1` [Compound 2o, N-decylphenyl)piperidine-4-carboxamide Hydrochloride] belongs over 2000 nM; to `CCCCCCCCCCc1ccc(NC(=O)CCCN(C)C)cc1` [Compound 2p, 4-(dimethylamino)-N-(4-decylphenyl)butanamide Hydrochloride], over 2000 nM; to `CCCCCCCCCCc1ccc(NC(=O)[C@@H]2CCCN(C(=N)N)C2)cc1` [Compound 4a, (R)carbamimidoyl-N-(4-decylphenyl)piperidine-3-carboxamide 2,2,2-trifluoroacetate], at most 2000 nM.
To `CCCCCCCCCCc1ccc(NC(=O)CCCNC(=N)N)cc1` [Compound 4c, N-decylphenyl)-4-guanidinobutanamide Hydrochloride] belongs at most 2000 nM.
With `CCCCCCCCCCc1ccc2oc(CCN)nc2c1` [Compound 8a, 2-Decylbenzo[d]oxazol-2-yl)ethan-1-amine Hydrochloride], the IC50 was over 2000 nM.
To `CCCCCCCCCCc1ccc2oc(CCCN)nc2c1` [Compound 8b, 3-Decylbenzo[d]oxazol-2-yl)propan-1-amine Hydrochloride] belongs over 2000 nM; to `CCCCCCCCCCc1ccc2oc(CCCCCN)nc2c1` [Compound 8c, 5-Decylbenzo[d]oxazol-2-yl)pentan-1-amine Hyrdrochloride], over 2000 nM.
To `CCCCCCCCCCc1ccc2nc(CCN)oc2c1` [Compound 8d, 2-Decylbenzo[d]oxazol-2-yl)ethan-1-amine Hydrochloride] belongs over 2000 nM.
